These results are taken from DBAASP.

Common to all, as to test: ≥ marks a high value that may be exact or a test limit, other limits are often not marked, values filed in µg/mL are converted to µM
For test [1], the system named is Pseudomonas aeruginosa Ps4.
For test [2], the system named is Staphylococcus aureus ATCC 33591.
Test [3] relates to Candida albicans ATCC 10231.
Test [4] deals with Escherichia coli ATCC 2592.
Test [5] deals with Pseudomonas aeruginosa ATCC 10145.
The subject of test [6] is Cryptococcus neoformans ATCC 32045.
The test system of another test is Escherichia coli JW0013.

Structures are written as SMILES. Values after ≈ are worked out from the molar mass of the structure shown. Where only a bound is given, the exact number is not on record here.

The term MIC denotes the lowest concentration that inhibits growth of the organism. Low values mean inhibition by little substance, high ones a need for much substance. In test [1], `CC[C@H](C)[C@H](NC(=O)[C@H](CC(N)=O)NC(=O)[C@H](CCCN=C(N)N)NC(=O)[C@H](CCC(N)=O)NC(=O)[C@H](Cc1c[nH]c2ccccc12)NC(=O)[C@H](Cc1ccccc1)NC(=O)[C@@H](N)CS)C(=O)N[C@@H](CCCN=C(N)N)C(=O)N[C@@H](CCCCN)C(=O)N[C@H](C(=O)N[C@@H](CS)C(=O)N[C@@H](CCCN=C(N)N)C(N)=O)C(C)C` [CFWQRNIRKVCR] gave a minimum inhibitory concentration (MIC) of no less than 155 µM.

For `CC[C@H](C)[C@H](NC(=O)[C@H](CC(N)=O)NC(=O)[C@H](CCCN=C(N)N)NC(=O)[C@@H](NC(=O)[C@H](Cc1c[nH]c2ccccc12)NC(=O)[C@@H](N)Cc1ccccc1)[C@@H](C)CC)C(=O)N[C@@H](CCCN=C(N)N)C(=O)N[C@@H](CCCCN)C(=O)N[C@H](C(=O)N[C@@H](CCCN=C(N)N)C(N)=O)C(C)C` [FWIRNIRKVR], the MIC in test [1] is no less than 180 µM.

As for `CC[C@H](C)[C@H](NC(=O)[C@H](CCCN=C(N)N)NC(=O)[C@H](CCCN=C(N)N)NC(=O)[C@H](CCCN=C(N)N)NC(=O)[C@@H](NC(=O)[C@H](CCCCN)NC(=O)[C@H](CCCN=C(N)N)NC(=O)[C@@H](NC(=O)[C@H](CC(N)=O)NC(=O)[C@H](CCCN=C(N)N)NC(=O)[C@H](CCC(N)=O)NC(=O)[C@H](Cc1c[nH]c2ccccc12)NC(=O)[C@@H](N)Cc1ccccc1)[C@@H](C)CC)C(C)C)C(N)=O` [FWQRNIRKVRRRI], the MIC in test [1] was no less than 137 µM.

In test [1], `CC[C@H](C)[C@H](NC(=O)[C@H](CC(N)=O)NC(=O)[C@H](CCCN=C(N)N)NC(=O)[C@H](CCC(N)=O)NC(=O)[C@H](Cc1c[nH]c2ccccc12)NC(=O)[C@@H](N)Cc1ccccc1)C(=O)N[C@@H](CCCN=C(N)N)C(=O)N[C@H](C(=O)N[C@@H](CCCN=C(N)N)C(N)=O)C(C)C` [FWQRNIRVR] yielded a minimum inhibitory concentration (MIC) of no less than 196 µM.

For the molecule `C[C@H](NC(=O)[C@H](C)NC(=O)[C@H](CCCCN)NC(=O)[C@H](CCCCN)NC(=O)[C@H](C)NC(=O)[C@H](C)NC(=O)[C@H](CCCCN)NC(=O)[C@H](CCCCN)NC(=O)[C@H](C)NC(=O)[C@H](C)NC(=O)[C@H](CCCCN)NC(=O)[C@H](CCCCN)NC(=O)[C@H](C)NC(=O)[C@H](C)NC(=O)[C@H](CCCCN)NC(=O)[C@H](CCCCN)NC(=O)[C@H](C)NC(=O)[C@H](C)NC(=O)[C@H](CCCCN)NC(=O)[C@H](CCCCN)NC(=O)[C@H](C)NC(=O)[C@H](C)NC(=O)[C@H](CCCCN)NC(=O)[C@H](CCCCN)NC(=O)[C@H](C)NC(=O)[C@H](C)NC(=O)[C@@H](N)CCCCN)C(=O)N[C@@H](CCCCN)C(=O)O` [KAAKKAAKKAAKKAAKKAAKKAAKKAAK], the MIC in test [2] was no less than 178 µM; in test [3] it was greater than 178 µM; in test [4], no less than 178 µM; in test [5] it was no less than 89 µM; in test [6], 31.4 µM (≈ 88 µg/mL).

As to `NCCCC[C@H](NC(=O)[C@H](Cc1ccccc1)NC(=O)[C@H](CCCCN)NC(=O)[C@H](CCCCN)NC(=O)[C@H](Cc1ccccc1)NC(=O)[C@H](CCCCN)NC(=O)[C@H](CCCCN)NC(=O)[C@H](Cc1ccccc1)NC(=O)[C@H](CCCCN)NC(=O)[C@H](CCCCN)NC(=O)[C@H](Cc1ccccc1)NC(=O)[C@H](CCCCN)NC(=O)[C@H](CCCCN)NC(=O)[C@H](Cc1ccccc1)NC(=O)[C@H](CCCCN)NC(=O)[C@H](CCCCN)NC(=O)[C@H](Cc1ccccc1)NC(=O)[C@@H](N)CCCCN)C(=O)O` [KFKKFKKFKKFKKFKKFK], the MIC in test [2] is no less than 205 µM; in test [3], 145 µM (≈ 354 µg/mL); in test [4], no less than 36.1 µM; in test [5], no less than 51.2 µM; in test [6], 20.4 µM (≈ 49.8 µg/mL).

In the case of `C[C@H](NC(=O)[C@H](Cc1ccccc1)NC(=O)[C@H](CCCCN)NC(=O)[C@H](CCCCN)NC(=O)[C@H](C)NC(=O)[C@H](Cc1ccccc1)NC(=O)[C@H](CCCCN)NC(=O)[C@H](CCCCN)NC(=O)[C@H](C)NC(=O)[C@H](Cc1ccccc1)NC(=O)[C@H](CCCCN)NC(=O)[C@H](CCCCN)NC(=O)[C@H](C)NC(=O)[C@H](Cc1ccccc1)NC(=O)[C@H](CCCCN)NC(=O)[C@H](CCCCN)NC(=O)[C@H](C)NC(=O)[C@H](Cc1ccccc1)NC(=O)[C@H](CCCCN)NC(=O)[C@H](CCCCN)NC(=O)[C@H](C)NC(=O)[C@H](Cc1ccccc1)NC(=O)[C@H](CCCCN)NC(=O)[C@@H](N)CCCCN)C(=O)O` [KKFAKKFAKKFAKKFAKKFAKKFA], the MIC is no less than 87.2 µM in test [2]; 61.7 µM (≈ 177 µg/mL) in test [3]; 7.9 µM (≈ 22.6 µg/mL) in test [4]; 21.6 µM (≈ 62 µg/mL) in test [5]; 15.5 µM (≈ 44.5 µg/mL) in test [6].

For `CC(C)C[C@H](NC(=O)[C@H](C)NC(=O)[C@H](CC(C)C)NC(=O)[C@H](C)NC(=O)[C@H](CC(C)C)NC(=O)[C@H](C)NC(=O)[C@H](CC(C)C)NC(=O)[C@H](C)NC(=O)[C@H](CC(C)C)NC(=O)[C@H](C)NC(=O)[C@H](CC(C)C)NC(=O)[C@H](C)NC(=O)[C@H](CC(C)C)NC(=O)[C@H](C)NC(=O)[C@H](CC(C)C)NC(=O)[C@H](C)NC(=O)[C@H](CC(C)C)NC(=O)[C@H](C)NC(=O)[C@H](CC(C)C)NC(=O)[C@H](C)NC(=O)[C@@H](N)CC(C)C)C(=O)N[C@@H](C)C(=O)O` [LALALALALALALALALALALA], the minimal inhibitory concentration (MIC) in test [2] was no less than 86.5 µM; in test [3], greater than 245 µM; in test [4], no less than 86.5 µM; in test [5], no less than 122 µM; in test [6], no less than 43.1 µM.

Take `CC(C)C[C@H](NC(=O)[C@H](CCCCN)NC(=O)[C@H](CC(C)C)NC(=O)[C@H](CCCCN)NC(=O)[C@H](CC(C)C)NC(=O)[C@H](CCCCN)NC(=O)[C@H](CC(C)C)NC(=O)[C@H](CCCCN)NC(=O)[C@H](CC(C)C)NC(=O)[C@H](CCCCN)NC(=O)[C@H](CC(C)C)NC(=O)[C@H](CCCCN)NC(=O)[C@H](CC(C)C)NC(=O)[C@H](CCCCN)NC(=O)[C@H](CC(C)C)NC(=O)[C@H](CCCCN)NC(=O)[C@H](CC(C)C)NC(=O)[C@H](CCCCN)NC(=O)[C@@H](N)CC(C)C)C(=O)N[C@@H](CCCCN)C(=O)O` [LKLKLKLKLKLKLKLKLKLK]: the minimum inhibitory concentration (MIC) is no less than 72.7 µM in test [2]; 145 µM (≈ 354 µg/mL) in test [3]; no less than 79.6 µM in test [4]; no less than 51.4 µM in test [5]; no less than 36.2 µM in test [6].

With `CC(C)C[C@H](NC(=O)[C@H](CCCCN)NC(=O)[C@H](CC(C)C)NC(=O)[C@H](CCCCN)NC(=O)[C@H](CC(C)C)NC(=O)[C@H](CCCCN)NC(=O)[C@H](CC(C)C)NC(=O)[C@H](CCCCN)NC(=O)[C@H](CC(C)C)NC(=O)[C@H](CCCCN)NC(=O)[C@H](CC(C)C)NC(=O)[C@H](CCCCN)NC(=O)[C@H](CC(C)C)NC(=O)[C@H](CCCCN)NC(=O)[C@H](CC(C)C)NC(=O)[C@H](CCCCN)NC(=O)[C@@H](N)CC(C)C)C(=O)N[C@@H](CCCCN)C(=O)O` [LKLKLKLKLKLKLKLKLK], the MIC is no less than 161 µM in test [2]; 161 µM (≈ 354 µg/mL) in test [3]; no less than 40.2 µM in test [4]; no less than 36.5 µM in test [5]; 20.3 µM (≈ 44.5 µg/mL) in test [6].

For `CC(C)C[C@H](NC(=O)[C@H](CCCCN)NC(=O)[C@H](CC(C)C)NC(=O)[C@H](CCCCN)NC(=O)[C@H](CC(C)C)NC(=O)[C@H](CCCCN)NC(=O)[C@H](CC(C)C)NC(=O)[C@H](CCCCN)NC(=O)[C@H](CC(C)C)NC(=O)[C@H](CCCCN)NC(=O)[C@H](CC(C)C)NC(=O)[C@H](CCCCN)NC(=O)[C@H](CC(C)C)NC(=O)[C@H](CCCCN)NC(=O)[C@@H](N)CC(C)C)C(=O)N[C@@H](CCCCN)C(=O)O` [LKLKLKLKLKLKLKLK], the MIC in test [2] was no less than 90.7 µM; in test [3], 181 µM (≈ 354 µg/mL); in test [4] it was no less than 64.1 µM; in test [5], no less than 66.7 µM; in test [6], 23 µM (≈ 44.9 µg/mL).

As to `CC[C@H](C)[C@H](NC(=O)[C@H](CCCN=C(N)N)NC(=O)[C@H](CCCN=C(N)N)NC(=O)[C@@H]1CCCN1C(=O)[C@@H]1CCCN1C(=O)[C@H](CCCN=C(N)N)NC(=O)[C@H](CCCN=C(N)N)NC(=O)[C@H](CCCN=C(N)N)NC(=O)[C@@H]1CCCN1C(=O)[C@H](CC(C)C)NC(=O)[C@H](Cc1ccc(O)cc1)NC(=O)[C@@H]1CCCN1C(=O)[C@H](CCCN=C(N)N)NC(=O)[C@H](CCCCN)NC(=O)[C@H](CC(=O)O)NC(=O)[C@@H](N)C(C)C)C(=O)N[C@@H](Cc1ccc(O)cc1)C(=O)N[C@@H](CC(N)=O)C(=O)N[C@@H](CCCN=C(N)N)C(N)=O` [VDKRPYLPRRRPPRRIYNR], the minimum inhibitory concentration (MIC) against Escherichia coli JW0013 was found to be 0.638 µM (≈ 1.6 µg/mL).

The molecule `CC[C@H](C)[C@H](NC(=O)[C@H](CCCN=C(N)N)NC(=O)[C@H](CCCN=C(N)N)NC(=O)[C@@H]1CCCN1C(=O)[C@@H]1CCCN1C(=O)[C@H](CCCN=C(N)N)NC(=O)[C@@H]1CCCN1C(=O)[C@H](CCCN=C(N)N)NC(=O)[C@@H]1CCCN1C(=O)[C@H](CC(C)C)NC(=O)[C@H](Cc1ccc(O)cc1)NC(=O)[C@@H]1CCCN1C(=O)[C@@H]1CCCN1C(=O)[C@H](CCCCN)NC(=O)[C@H](Cc1c[nH]c2ccccc12)NC(=O)[C@@H](N)C(C)C)C(=O)N[C@@H](Cc1ccc(O)cc1)C(=O)N[C@@H](CC(N)=O)C(=O)N[C@@H](CCCN=C(N)N)C(N)=O` [VWKPPYLPRPRPPRRIYNR] showed an MIC in the test on Escherichia coli JW0013 of 1.95 µM (≈ 4.8 µg/mL).

Regarding `CC[C@H](C)[C@H](NC(=O)[C@H](CCCN=C(N)N)NC(=O)[C@H](CCCN=C(N)N)NC(=O)[C@@H]1CCCN1C(=O)[C@@H]1CCCN1C(=O)[C@H](CCCN=C(N)N)NC(=O)[C@@H]1CCCN1C(=O)[C@H](CCCN=C(N)N)NC(=O)[C@@H]1CCCN1C(=O)[C@H](CC(C)C)NC(=O)[C@H](Cc1ccc(O)cc1)NC(=O)[C@@H]1CCCN1C(=O)[C@@H]1CCCN1C(=O)[C@H](CCCCN)NC(=O)[C@H](Cc1ccc(O)cc1)NC(=O)[C@@H](N)C(C)C)C(=O)N[C@@H](Cc1ccc(O)cc1)C(=O)N[C@@H](CC(N)=O)C(=O)N[C@@H](CCCN=C(N)N)C(N)=O` [VYKPPYLPRPRPPRRIYNR], in the test with Escherichia coli JW0013, the MIC is 1.97 µM (≈ 4.8 µg/mL).
